Assay results reported in ChEMBL document CHEMBL1201862, “PubChem BioAssay data set” (2004).
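Tested at 5 concentrations; 48 h exposure; 96-well plates; endpoints linearly interpolated, else capped at highest concentration. The concentration for 50% growth inhibition is given as GI50.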 Active and inactive are the calls of the source. Rule as the data show it: active = GI50 up to about 1.1 µM and inactive = higher.

Key:
Assay in all cases: NCI tumour cell line growth inhibition, 48 h
Malme-3M = tested on: Malme-3M
SK-OV-3 = tested on: SK-OV-3
DMS-114 = tested on: DMS-114
RPMI-8226 = tested on: RPMI-8226
UACC-62 = tested on: UACC-62
NCI-H460 = tested on: NCI-H460
NCI-H522 = tested on: NCI-H522
CAKI-1 = tested on: CAKI-1
SK-MEL-5 = tested on: SK-MEL-5
TK-10 = tested on: TK-10
HT-29 = tested on: HT-29
HOP-92 = tested on: HOP-92
U-251 = tested on: U-251
M19-MEL = tested on: M19-MEL
UACC-257 = tested on: UACC-257
NCI-H226 = tested on: NCI-H226
SNB-19 = tested on: SNB-19
XF498 = tested on: XF498
COLO 205 = tested on: COLO 205
SF-295 = tested on: SF-295
786-0 = tested on: 786-0
CCRF-CEM = tested on: CCRF-CEM
SW-620 = tested on: SW-620
SNB-75 = tested on: SNB-75
DMS-273 = tested on: DMS-273
LOX IMVI = tested on: LOX IMVI
KM-20L2 = tested on: KM-20L2
SNB-78 = tested on: SNB-78
M14 = tested on: M14
HL-60 = tested on: HL-60
HCC 2998 = tested on: HCC 2998
ACHN = tested on: ACHN
OVCAR-4 = tested on: OVCAR-4
SK-MEL-2 = tested on: SK-MEL-2
HOP-18 = tested on: HOP-18
HCT-15 = tested on: HCT-15
OVCAR-3 = tested on: OVCAR-3
NCI-H23 = tested on: NCI-H23
RXF 393 = tested on: RXF 393
IGROV-1 = tested on: IGROV-1
EKVX = tested on: EKVX
LXFL 529 = tested on: LXFL 529
SN12C = tested on: SN12C
SR = tested on: SR
KM12 = tested on: KM12
RXF 631 = tested on: RXF 631
A549 = tested on: A549
SK-MEL-28 = tested on: SK-MEL-28
OVCAR-5 = tested on: OVCAR-5
MOLT-4 = tested on: MOLT-4
HCT-116 = tested on: HCT-116
UO-31 = tested on: UO-31
OVCAR-8 = tested on: OVCAR-8
K562 = tested on: K562
DLD-1 = tested on: DLD-1
SF-539 = tested on: SF-539
SF-268 = tested on: SF-268
A498 = tested on: A498
HOP-62 = tested on: HOP-62

Measured: GI50

CCOc1ccc(/C=C2/C(=O)N=C(N)N=C2N)cc1OCC
inactive: Malme-3M > 100 µM | SK-OV-3 > 100 µM | DMS-114 > 100 µM | RPMI-8226 > 100 µM | UACC-62 > 100 µM | NCI-H460 > 100 µM | NCI-H522 > 100 µM | CAKI-1 > 100 µM | SK-MEL-5 > 100 µM | TK-10 > 100 µM | HT-29 > 100 µM | HOP-92 > 100 µM | U-251 > 100 µM | M19-MEL > 100 µM | UACC-257 > 100 µM | NCI-H226 > 100 µM | SNB-19 > 100 µM | XF498 > 100 µM | COLO 205 > 100 µM | SF-295 > 100 µM | 786-0 > 100 µM | CCRF-CEM > 100 µM | SW-620 > 100 µM | SNB-75 > 100 µM | DMS-273 > 100 µM | LOX IMVI > 100 µM | KM-20L2 > 100 µM | SNB-78 > 100 µM | M14 > 100 µM | HL-60 > 100 µM | HCC 2998 > 100 µM | ACHN > 100 µM | OVCAR-4 > 100 µM | SK-MEL-2 > 100 µM | HOP-18 > 100 µM | OVCAR-3 > 100 µM | NCI-H23 > 100 µM | RXF 393 > 100 µM | IGROV-1 > 100 µM | EKVX > 100 µM | LXFL 529 > 100 µM | SN12C > 100 µM | SR > 100 µM | KM12 > 100 µM | RXF 631 > 100 µM | A549 > 100 µM | SK-MEL-28 > 100 µM | OVCAR-5 > 100 µM | MOLT-4 > 100 µM | HCT-116 > 100 µM | UO-31 > 100 µM | OVCAR-8 > 100 µM | K562 > 100 µM
> 100 µM: HCT-15

COC(=O)c1nc(-c2ccc(Cl)c(Cl)c2)nc2ccccc12
> 100 µM: HCT-15
inactive: Malme-3M > 100 µM | SK-OV-3 9.91 µM | DMS-114 19.8 µM | RPMI-8226 > 28.9 µM | UACC-62 > 27.7 µM | DLD-1 > 25.2 µM | NCI-H460 > 34 µM | SF-539 24.2 µM | NCI-H522 > 100 µM | CAKI-1 44.3 µM | SK-MEL-5 > 35.8 µM | TK-10 34.6 µM | HT-29 > 100 µM | U-251 21.2 µM | M19-MEL > 100 µM | UACC-257 > 29.6 µM | NCI-H226 13.7 µM | SNB-19 5.89 µM | XF498 6.81 µM | SF-295 12 µM | 786-0 21.6 µM | CCRF-CEM > 100 µM | SW-620 > 21 µM | SNB-75 5.04 µM | DMS-273 26.2 µM | LOX IMVI > 100 µM | KM-20L2 > 100 µM | SF-268 6.81 µM | SNB-78 34.4 µM | M14 > 24.1 µM | HL-60 > 100 µM | HCC 2998 > 100 µM | ACHN 50.5 µM | OVCAR-4 7.83 µM | SK-MEL-2 71.8 µM | HOP-18 2.01 µM | OVCAR-3 14.5 µM | A498 27.4 µM | NCI-H23 57.9 µM | RXF 393 13.6 µM | HOP-62 14.3 µM | IGROV-1 48.9 µM | EKVX > 100 µM | LXFL 529 > 27.1 µM | SN12C > 100 µM | KM12 > 85.7 µM | RXF 631 > 67.6 µM | A549 34.9 µM | SK-MEL-28 > 59.3 µM | OVCAR-5 > 100 µM | MOLT-4 > 100 µM | HCT-116 13.1 µM | UO-31 43.4 µM | OVCAR-8 14.5 µM | K562 > 100 µM

N#CC(C(=O)/C(=N/N)C(C#N)c1ccccc1)c1ccccc1 (stereo not given)
> 100 µM: HCT-15
inactive: Malme-3M > 100 µM | SK-OV-3 > 100 µM | DMS-114 > 100 µM | RPMI-8226 > 100 µM | UACC-62 > 100 µM | DLD-1 > 100 µM | NCI-H460 > 100 µM | SF-539 > 100 µM | NCI-H522 > 100 µM | CAKI-1 > 100 µM | SK-MEL-5 > 100 µM | TK-10 > 100 µM | HT-29 > 100 µM | HOP-92 > 100 µM | U-251 > 100 µM | M19-MEL > 100 µM | UACC-257 > 100 µM | NCI-H226 > 100 µM | SNB-19 > 100 µM | XF498 > 100 µM | SF-295 > 100 µM | 786-0 > 100 µM | CCRF-CEM > 100 µM | SW-620 > 100 µM | LOX IMVI > 100 µM | SF-268 > 100 µM | SNB-78 > 100 µM | M14 > 100 µM | HL-60 > 100 µM | HCC 2998 > 100 µM | ACHN > 100 µM | OVCAR-4 > 100 µM | SK-MEL-2 > 100 µM | HOP-18 > 100 µM | OVCAR-3 > 100 µM | NCI-H23 > 100 µM | RXF 393 > 100 µM | HOP-62 > 100 µM | IGROV-1 > 100 µM | EKVX > 100 µM | LXFL 529 > 100 µM | SN12C > 100 µM | KM12 > 100 µM | RXF 631 > 100 µM | A549 > 100 µM | SK-MEL-28 > 100 µM | OVCAR-5 > 100 µM | MOLT-4 > 100 µM | HCT-116 > 100 µM | UO-31 > 100 µM | OVCAR-8 > 100 µM | K562 > 100 µM

N#CCCn1[nH]c(=O)c(Cl)c(Cl)c1=O
inactive: Malme-3M 17.3 µM | DMS-114 14.9 µM | RPMI-8226 11.5 µM | DLD-1 10.3 µM | NCI-H460 13.3 µM | SF-539 23.3 µM | NCI-H522 20.2 µM | TK-10 35.8 µM | HT-29 11.8 µM | HOP-92 6.21 µM | U-251 16.6 µM | M19-MEL 12 µM | UACC-257 18.9 µM | NCI-H226 23 µM | SNB-19 15.4 µM | XF498 16.1 µM | COLO 205 22.2 µM | SF-295 18.1 µM | 786-0 18.7 µM | SW-620 17.8 µM | SNB-75 13.2 µM | LOX IMVI 15 µM | KM-20L2 15.8 µM | SF-268 16.3 µM | SNB-78 19.6 µM | HL-60 11.3 µM | HCC 2998 13.1 µM | ACHN 17 µM | OVCAR-4 18 µM | SK-MEL-2 14.7 µM | HOP-18 16.9 µM | OVCAR-3 13.6 µM | A498 20.2 µM | NCI-H23 15.2 µM | RXF 393 17.1 µM | HOP-62 > 10 µM | IGROV-1 17.1 µM | EKVX 3.87 µM | LXFL 529 16.9 µM | SN12C 17.4 µM | SR 14.7 µM | KM12 14.5 µM | RXF 631 19.6 µM | A549 22.7 µM | SK-MEL-28 15.8 µM | OVCAR-5 18.8 µM | MOLT-4 15.9 µM | HCT-116 15.1 µM | UO-31 18.9 µM | OVCAR-8 15.7 µM | K562 6.12 µM
10.4 µM: HCT-15
